Laboratory results reported in PubChem BioAssay AID651675 (Sanford-Burnham Center for Chemical Genomics, 2012).
Calls of active or inactive are those of the source.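 How the source made its calls: active means compounds raising alpha-dystroglycan glycosylation signal with mean half-maximal concentration of 20 µM or lower; inactive means the rest.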

System: Pro5-aDG cells, alpha-DG glycosylation, IIH6 AlphaLISA
Experiment: enhancers of alpha-dystroglycan glycosylation, analogs – Pro5-aDG cells, AlphaLISA, SAR follow-up (AID 651675)

SMILES | EC50
Cn1c(=N)n(CC(=O)c2ccc(Cl)cc2)c2ccccc21 | 30.9 µM (inactive)
Cn1c(=N)n(CC(=O)c2ccc(Cl)c(Cl)c2)c2ccccc21 | 26 µM (inactive)
N=c1n(CCN2CCCC2)c2ccccc2n1CC(=O)c1ccc(Cl)c(Cl)c1 | 24.2 µM (inactive)
CCn1c(=N)n(CC(=O)c2ccc(Cl)c(Cl)c2)c2ccccc21 | 25.2 µM (inactive)
CCn1c(=N)n(CC(=O)c2ccc(Cl)cc2)c2ccccc21 | 26.6 µM (inactive)
N=c1n(CC(=O)c2ccc(Cl)c(Cl)c2)c2ccccc2n1Cc1ccccc1 | 15.5 µM

The remaining lines, values ahead:

EC50 | SMILES
5.13 µM | c1ccc(CCNc2nc(-c3c[nH]c4ccccc34)cs2)cc1
10.3 µM | CNc1nc(-c2c[nH]c3ccccc23)cs1
8.68 µM | CC(Cc1ccccc1)Nc1nc(-c2c[nH]c3ccccc23)cs1 (centres undefined)
3.99 µM | CCc1cccc2c(-c3csc(NC)n3)c[nH]c12
5.69 µM | C=CCNc1nc(-c2c[nH]c3ccccc23)cs1
7.05 µM | CCC(C)Nc1nc(-c2c[nH]c3ccccc23)cs1 (centres undefined)
33.3 µM (inactive) | C=CCn1c(=N)n(CC(=O)c2ccc(Cl)c(Cl)c2)c2ccccc21
34.5 µM (inactive) | Cn1c(=N)n(CC(=O)c2ccc(F)cc2)c2ccccc21
